Results as given in the supplement of paper PMC13380429.

Columns and labels:
[1] = tested on: A549-ACE2 infected with SARS-CoV-2; assay: cell count relative to DMSO; higher = less toxic; conditions: 24 h
[2] = tested on: Caco-2; assay: cell viability relative to DMSO; higher = less toxic; conditions: 72 h
[3] = tested on: Calu-3; assay: as above; conditions: 72 h
[4] = tested on: HepG2; assay: as above; conditions: 72 h
[5] = tested on: U2OS; assay: as above; conditions: 72 h
[6] = tested on: Vero E6; assay: as above; conditions: 72 h
[7] = tested on: A549-ACE2 infected with SARS-CoV-2; assay: SARS-CoV-2 infection rate relative to DMSO; higher = more infection; conditions: 24 h
[8] = tested on: A549-ACE2; assay: phospholipidosis EC50; higher = less potent phospholipidosis inducer; conditions: 24 h
[9] = tested on: A549-ACE2; assay: drug-induced phospholipidosis relative to tamoxifen; higher = more phospholipidosis
[10] = tested on: A549-ACE2 infected with SARS-CoV-2; assay: morphology score (similarity to uninfected cells); higher = more like uninfected cells; conditions: 24 h
[11] = tested on: Caco-2; assay: relative viability EC50 (midpoint between 100% and the lowest measured viability); higher = less toxic; conditions: 72 h
[12] = tested on: HepG2; assay: as above; conditions: 72 h
[13] = tested on: Vero E6; assay: as above; conditions: 72 h
[14] = tested on: Caco-2; assay: drug sensitivity score (DSS) for viability; higher = more toxic; extreme values may be limits of the assay; conditions: 72 h
[15] = tested on: Calu-3; assay: as above; conditions: 72 h
[16] = tested on: HepG2; assay: as above; conditions: 72 h
[17] = tested on: U2OS; assay: as above; conditions: 72 h
[18] = tested on: Vero E6; assay: as above; conditions: 72 h

NC(=O)N1CCC(CC(=O)N2CCC([C@H]3c4ncc(Br)cc4CCc4cc(Cl)cc(Br)c43)CC2)CC1 [lonafarnib]
Conditions	SARS-CoV-2 infection rate, [7] [%]	cell count, [1] [%]	cell viability, [2] [%]	cell viability, [3] [%]	cell viability, [4] [%]	cell viability, [5] [%]	cell viability, [6] [%]	morphology score, [10]
1 nM	–	–	91.3	80.5	102	97.5	103	–
10 nM	–	–	106	91.2	98.7	100	94.1	–
100 nM	–	–	94.6	91.3	96.2	95	94.8	–
0.3 µM	97	98	–	–	–	–	–	0.19
1000 nM	–	–	79.7	72.6	89.5	92	93.3	–
3 µM	85	102	–	–	–	–	–	0.41
10 µM	71	94	–	–	–	–	–	0.69
10000 nM	–	–	47.7	68.5	49.8	67.2	88.3	–
30 µM	11	74	–	–	–	–	–	0.56

Conditions	drug sensitivity score	phospholipidosis EC50 [µM]	relative viability EC50 [µM]
[8]	–	7.17	–
[11]	–	–	1.29
[12]	–	–	1.7
[13]	–	–	> 10
[14]	5	–	–
[15]	6.3	–	–
[16]	4.4	–	–
[17]	2.6	–	–
[18]	0	–	–

drug-induced phospholipidosis [%], [9]
Conditions	0.3 µM	0.833333 µM	3.33333 µM	6.66667 µM	10 µM	30 µM
24 h	11.7	7.58	19.6	27.3	40.9	50.3
48 h	16.3	10.1	20.5	30.3	36.1	–
72 h	15.9	12.2	29.3	42.5	51.2	–
